Results on 15 molecules are retold here after patent US11473089B2, “Aptamer for ADAMTS5 and use for aptamer for ADAMTS5” (RIBOMIC INC., priority 2017, dated 2022).

B1: 2 (nucleic acid)
chain: GGGUACGACCGUCGUACGAUUGGGCCUCCACAGCUGCUCAGCUUGGACUAAACCAAUAAGAGACUAACGCCUAGCGUAC
modifications: 2'-fluoro at CU, RNA at AG, backbone not given here

The first data set addresses T1, ADAMTS5 (Homo sapiens, UniProt Q9UNA0).
T1 construct: purchased R&D systems
T1 sequence (Q9UNA0 262-930): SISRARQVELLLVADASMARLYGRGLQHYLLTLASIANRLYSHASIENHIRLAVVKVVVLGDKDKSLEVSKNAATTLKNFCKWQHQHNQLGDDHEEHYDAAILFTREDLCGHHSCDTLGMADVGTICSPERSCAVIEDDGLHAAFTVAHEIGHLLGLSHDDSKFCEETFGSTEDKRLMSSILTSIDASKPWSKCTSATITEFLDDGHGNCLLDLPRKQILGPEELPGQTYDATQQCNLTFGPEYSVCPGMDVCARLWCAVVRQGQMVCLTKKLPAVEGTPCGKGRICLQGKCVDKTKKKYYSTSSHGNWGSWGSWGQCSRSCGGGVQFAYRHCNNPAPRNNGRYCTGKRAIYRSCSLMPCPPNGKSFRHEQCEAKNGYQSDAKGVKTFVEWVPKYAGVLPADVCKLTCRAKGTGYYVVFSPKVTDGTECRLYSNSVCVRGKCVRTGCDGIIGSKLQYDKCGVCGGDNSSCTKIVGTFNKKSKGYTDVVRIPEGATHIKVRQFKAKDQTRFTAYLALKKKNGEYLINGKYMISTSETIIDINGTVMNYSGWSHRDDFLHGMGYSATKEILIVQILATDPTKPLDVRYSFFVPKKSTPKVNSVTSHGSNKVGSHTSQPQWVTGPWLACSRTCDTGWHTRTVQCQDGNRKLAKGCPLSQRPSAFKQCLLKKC
Briefly: binding activity to ADAMTS5 by surface plasmon resonance (Biacore T100). The note with it: Table 1; 0.1 μM ADAMTS5 analyte, aptamer immobilized on SA chip. How it is done:
The binding activity of aptamers having the nucleotide sequences shown in SEQ ID NOs: 1 and 2 to ADAMTS5 was evaluated by the surface plasmon resonance method. Biacore T100 manufactured by GE Healthcare was used for the measurement. The SA chip was used as the sensor chip, which had streptavidin immobilized thereon. About 800 RU of a 16-nucleotide Poly dT with biotin at the 5′-terminal was bound on the chip. […] ADAMTS5 for analyte was prepared at 0.1 μM, and injected at a flow rate of 30 μL/min for 60 sec. As the running buffer, solution C was used. The solution C is a mixed solution of 300 mM sodium chloride, 5.4 mM potassium chloride, 1.8 mM calcium chloride, 0.8 mM magnesium chloride, 20 mM tris (pH 7.6), and 0.05% Tween20.
SEQ ID NO: 2 has a sequence with one base deletion from the continuous 4 G bases in the consensus sequence, and it was shown from the measurement results of the binding activity that the continuous 4 G bases in the consensus sequence are important for the activity of aptamers. Sensorgram showing the binding of an aptamer having the nucleotide sequence shown in SEQ ID NO: 1 to ADAMTS5 is presented in FIG. 2. In Table 1, “++” indicates those with the proportion of ADAMTS5 binding amount (RU value) to the amount of aptamer immobilized on the SA chip (RU value) of not less than 40%, “+” indicates those with the proportion of not less than 10% and less than 40%, and “−” indicates those with the proportion of less than 10%.
The binding activity and enzyme inhibitory activity of aptamers having nucleotide sequences shown in SEQ ID NOs: 16-25 to ADAMTS5 were measured. The binding activity was evaluated by the surface plasmon resonance method. For the measurement, a method similar to that in Example 1 was used. The enzyme inhibitory activity was measured by a method similar to that in Example 1. […] The negative control nucleic acid refers to the nucleic acid pool used in the first round of the SELEX method. The “++” indicates those with the proportion of ADAMTS5 binding amount (RU value) to the amount of aptamer immobilized on the SA chip (RU value) of not less than 40%, and “+” indicates those with the proportion of less than 40%. […] “n.d.” means not determined.
The binding activity of the nucleic acids shown in SEQ ID NOs: 30-45 to ADAMTS5 was measured. The binding activity was evaluated by the surface plasmon resonance method. In the Table, “++” indicates those with the proportion of ADAMTS5 binding amount (RU value) to the amount of aptamer immobilized on the SA chip (RU value) of not less than 40%, “+” indicates those with the proportion of not less than 10% and less than 40%, and “−” indicates those with the proportion of less than 10%.
For the molecule B1, the “binding activity by Biacore” value was “− (proportion of less than 10%)”.

The data set is the same for the next values; noted with them: Table 10.
Regarding “32 (GGGUAUUGGGGCCUCCACAGAAAAAUCUUGGACUAAACCAAUCUCGA; aptamer; 2'-fluoro at CU, RNA at AG, backbone not given here) [compound 32]”, the binding activity entry is listed as “++ (proportion of ADAMTS5 binding amount (RU value) to the amount of aptamer immobilized on the SA chip (RU value) of not less than 40%)”.

In the case of “33 (GGGUAUUGGGGCCUCCACAGCCGAGGCUUGGACUAAACCAAUCUCGA; aptamer; 2'-fluoro at CU, RNA at AG, backbone not given here) [compound 33]”, the binding activity entry is recorded as “++ (proportion of ADAMTS5 binding amount (RU value) to the amount of aptamer immobilized on the SA chip (RU value) of not less than 40%)”.

For the molecule “34 (GGGUAUUGGGGCCUCCACAGAAAAAACUUGGACUAAACCAACUCGA; aptamer; 2'-fluoro at CU, RNA at AG, backbone not given here) [compound 34]”, the binding activity result was “++ (proportion of ADAMTS5 binding amount (RU value) to the amount of aptamer immobilized on the SA chip (RU value) of not less than 40%)”.

As to “35 (GGGUAUUGGGGCCUCCACAGUAAGCACUUGGACUAAACCAGCUCGA; aptamer; 2'-fluoro at CU, RNA at AG, backbone not given here) [compound 35]”, the binding activity result is “++ (proportion of ADAMTS5 binding amount (RU value) to the amount of aptamer immobilized on the SA chip (RU value) of not less than 40%)”.

“36 (GGGUAUUGGGGCCUCCACAGUUUAAACUUGGACUAAACCAACUCGA; aptamer; 2'-fluoro at CU, RNA at AG, backbone not given here) [compound 36]”: the binding activity entry is reported as “++ (proportion of ADAMTS5 binding amount (RU value) to the amount of aptamer immobilized on the SA chip (RU value) of not less than 40%)”.

As for “37 (GGGUAUUGGGGCCUCCACAGUAAAUUCUUGGACUAAACCAACUCGA; aptamer; 2'-fluoro at CU, RNA at AG, backbone not given here) [compound 37]”, the binding activity result is recorded as “++ (proportion of ADAMTS5 binding amount (RU value) to the amount of aptamer immobilized on the SA chip (RU value) of not less than 40%)”.

Regarding “38 (GGGUAUUGGGGCCUCCACGCUAGAAGGCUGGACUAAACCAACUCGA; aptamer; 2'-fluoro at CU, RNA at AG, backbone not given here) [compound 38]”, the binding activity result is “++ (proportion of ADAMTS5 binding amount (RU value) to the amount of aptamer immobilized on the SA chip (RU value) of not less than 40%)”.

As for “39 (GGGUAUUGGGGCCUCCACGUAACUAAACUGGACUAAACCAACUCGA; aptamer; 2'-fluoro at CU, RNA at AG, backbone not given here) [compound 39]”, the binding activity entry was “++ (proportion of ADAMTS5 binding amount (RU value) to the amount of aptamer immobilized on the SA chip (RU value) of not less than 40%)”.

On to “40 (GGGUAUUGGGGCCUCCACGCAAUGGUGCUGGACUAAACCAACUCGA; aptamer; 2'-fluoro at CU, RNA at AG, backbone not given here) [compound 40]”, for which the binding activity entry is “++ (proportion of ADAMTS5 binding amount (RU value) to the amount of aptamer immobilized on the SA chip (RU value) of not less than 40%)”.

For the molecule “41 (GGGUAUUGGGGCCUCCACAUGGAUACAUUGGACUAAACCAACUCGA; aptamer; 2'-fluoro at CU, RNA at AG, backbone not given here) [compound 41]”, the binding activity entry was “++ (proportion of ADAMTS5 binding amount (RU value) to the amount of aptamer immobilized on the SA chip (RU value) of not less than 40%)”.

As for “42 (GGGUAUUGGGGCCUCCACAGAUAAUUCUUGGACUAAACCAACUCGA; aptamer; 2'-fluoro at CU, RNA at AG, backbone not given here) [compound 42]”, the binding activity result is “++ (proportion of ADAMTS5 binding amount (RU value) to the amount of aptamer immobilized on the SA chip (RU value) of not less than 40%)”.

Take “43 (GGGUAUUGGGGCCUCCACAGAAAAUUCUUGGACUAAACCAACUCGA; aptamer; 2'-fluoro at CU, RNA at AG, backbone not given here) [compound 43]”: the binding activity result is on record as “++ (proportion of ADAMTS5 binding amount (RU value) to the amount of aptamer immobilized on the SA chip (RU value) of not less than 40%)”.

“44 (GGGUAUUGGGGCCUCCACAGAACUUUCUUGGACUAAACCAACUCGA; aptamer; 2'-fluoro at CU, RNA at AG, backbone not given here) [compound 44]”: the binding activity result is on record as “++ (proportion of ADAMTS5 binding amount (RU value) to the amount of aptamer immobilized on the SA chip (RU value) of not less than 40%)”.

As for “45 (GGGUAUUGGGGCCUCCACAGAAAAGUCUUGGACUAAACCAACUCGA; aptamer; 2'-fluoro at CU, RNA at AG, backbone not given here) [compound 45]”, the binding activity entry is listed as “++ (proportion of ADAMTS5 binding amount (RU value) to the amount of aptamer immobilized on the SA chip (RU value) of not less than 40%)”.

Still in this data set, the particulars now being: surface plasmon resonance.
Consider B1, for which the “binding to ADAMTS5 (in words)” value is reported as “did not bind to ADAMTS5”.
